Laboratory results: publication PMC7822874, “Chemoprotective antimalarials identified through quantitative high-throughput screening of Plasmodium blood and liver stage parasites” (Scientific Reports, 2021)
“And” between values parts separate entries of the source, which are not always exact repeats. Equal entries are not always repeated. Where two headings read alike, the source gives them in different places.

Legend:
[1] = test system: T1, Plasmodium falciparum Dd2-attB (parental line), asexual blood stages; experiment: microbe, parasite or virus in culture; design: replicate k of 3 (each line is one of three independent assays; the three lines of one compound and parasite line follow each other); conditions: n = 1; for Individual replicates / Log AC50 (M): 72 h; for AC50: Plasmodium falciparum, DD2, 72 h, read-out: Individual replicates / Log AC50 (converted)
T1 construct: Dd2-attB, the isogenic parental line
Method in brief: (§1)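 The transgenic line overexpresses fumarate-dependent yeast DHODH, bypassing parasite mETC and ubiquinone-dependent parasite DHODH. A subset of compounds was run in three independent assays on both lines, and line differences were tested by two-sided Student's t-test.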

[2] = test system: T2, Plasmodium falciparum Dd2-attB-ScDHODH (transgenic line expressing yeast DHODH), asexual blood stages; experiment: organism not typed; design: replicate k of 3 (each line is one of three independent assays; the three lines of one compound and parasite line follow each other)
T2 construct: Dd2-attB-ScDHODH, the transgenic line that expresses yeast DHODH
Method in brief: as §1

[3] = test system: T1, Plasmodium falciparum Dd2-attB (parental line), asexual blood stages; experiment: microbe, parasite or virus in culture; design: species or system P. falciparum Dd2-attB in human erythrocytes; SYBR Green-I proliferation assay, Dd2-attB parental line, asexual blood stages; conditions: 72 h; for AC50: Plasmodium falciparum, DD2, Erythrocyte
[4] = 72 h; n = 1; read-out: Individual replicates / Log AC50 (converted)
[5] = read-out: Calculated / Average Log AC50 (M), mean of replicates, 72 h (converted)

Row | SMILES | Individual replicates / Log AC50 (M) [1] | AC50 [1] [µM] | Individual replicates / Log AC50 (M) ([2]; 72 h, n = 1) | AC50 [2, 4] [µM] | AC50 [3, 5] [M] | Individual replicates / Log AC50 (M) ([2]; 72 h; n = 1) | AC50 ([3]; read-out: Calculated / Average Log AC50 (M) (converted)) | Calculated / Average Log AC50 (M) ([3]; mean of replicates, inhibitor, Calculated / Average Log AC50 (M))
1 | Oc1ncnc2sc(C(OCCN3CCCCC3)c3ccccc3Cl)cc12 (stereo not drawn) [NCGC00481361-01] | -5.0986 Log AC50 (M) | 8.94 | -5.0486 Log AC50 (M) | 15.9 | 1e-05 | – | – | –
2 | Oc1ccc(CNc2ccccc2F)c2cccnc12 [NCGC00031503-02] | -4.9986 Log AC50 (M) | 17.8 | -4.7486 Log AC50 (M) and -4.7986 Log AC50 (M) | 20 | 1.22e-05 | – | – | –
3 | CCOC(=O)c1ccc(O)c2ncc(NCC3CCCN(CCc4ccccc4)C3)cc12 (stereo not drawn) [NCGC00241755-01] | -5.1486 Log AC50 (M) and -4.8986 Log AC50 (M) | 6.33 | -5.0986 Log AC50 (M) | 6.33 | 8.28e-06 | – | – | –
4 | CN(C)CC(C)(C)CNC(=O)c1cccc(-c2cc(O)c3ncccc3c2)c1 [NCGC00244532-01] | -4.7986 Log AC50 (M) and -5.1486 Log AC50 (M) and -4.8486 Log AC50 (M) | – | -4.7486 Log AC50 (M) and -5.0986 Log AC50 (M) | – | 1.17e-05 | – | – | –
5 | CN(C)CCCOc1ccc(-c2cc(O)c3ncccc3c2)cn1 [NCGC00247741-01] | -4.7986 Log AC50 (M) and -5.1486 Log AC50 (M) and -5.0986 Log AC50 (M) | – | -4.7486 Log AC50 (M) and -5.0486 Log AC50 (M) | – | 9.65e-06 | – | – | –
6 | Cc1ccccc1CN1CCN(c2cnc3c(O)ccc(C(=O)O)c3c2)CC1 [NCGC00249382-01] | – | 14.2 | – | 15.9 | 1.65e-05 | – | – | –
7 | O=C(O)c1ccc(O)c2ncc(N3CCCN(CCc4cccc5ccccc45)CC3)cc12 [NCGC00247751-02] | -5.1486 Log AC50 (M) | 6.33 | -5.2486 Log AC50 (M) and -4.7486 Log AC50 (M) | – | 9.65e-06 | – | – | –
8 | COc1ccc(NCc2cccn2-c2nnc(N3CCC(C)CC3)s2)c(OC)c1 [NCGC00127038-02] | -4.9986 Log AC50 (M) | 17.8 | -4.7486 Log AC50 (M) and -4.7986 Log AC50 (M) | 14.2 | 1.26e-05 | – | – | –
9 | CN(C)c1cnc2c(O)ccc([S+](=O)([O-])Nc3ccccc3F)c2c1 [NCGC00189501-01] | -5.0986 Log AC50 (M) | 12.6 | -4.9986 Log AC50 (M) and -4.7986 Log AC50 (M) | 14.2 | 9.29e-06 | – | – | –
10 | CN(C)CCNC(=O)c1ccc(-c2cc(O)c3ncccc3c2)cc1 [NCGC00247749-01] | -4.9986 Log AC50 (M) and -5.0486 Log AC50 (M) | 15.9 | – | 17.8 | 1.13e-05 | – | – | –
11 | COC(=O)c1ccnc2cc(C(OCCN3CCC(F)(F)CC3)c3ccccc3Cl)[nH]c12 (stereo not drawn) [NCGC00408945-01] | – | 10 | – | 15.9 | 1.42e-05 | – | – | –
12 | Cc1cccc(C)c1Nc1c(-c2ccccn2)nc2ccc(Cl)cn12 [NCGC00106608-03] | -4.7986 Log AC50 (M) and -4.9486 Log AC50 (M) | 15.9 | – | 15.9 | 1.42e-05 | -4.7986 Log AC50 (M) | – | –
13 | O=C(NC1=CC(=O)c2ccccc2C1=O)c1ccccc1 [MLS002693850-02] | -5.5986 Log AC50 (M) (2×) and -5.1486 Log AC50 (M) | – | -5.5486 Log AC50 (M) and -5.0986 Log AC50 (M) | – | 3.56e-06 | – | – | –
14 | COC(=O)c1ccc(O)c2ncc(N3CCN(C)CC3)cc12 [NCGC00241034-01] | -5.2986 Log AC50 (M) and -5.0486 Log AC50 (M) | 5.03 | -5.2486 Log AC50 (M) and -5.2986 Log AC50 (M) and -4.8486 Log AC50 (M) | – | 6.09e-06 | – | – | –
15 | O=C(NCCCCN1CCOCC1)c1cccc(-c2cc(O)c3ncccc3c2)c1 [NCGC00249385-01] | -5.1986 Log AC50 (M) and -4.8986 Log AC50 (M) | 6.33 | -5.2486 Log AC50 (M) and -5.1486 Log AC50 (M) and -4.8486 Log AC50 (M) | – | 7.97e-06 | – | – | –
16 | CCNC(=O)Oc1cc(-c2cccc(C(=O)NCCCc3ccccc3)c2)cc2cccnc12 [NCGC00372508-01] | -5.1986 Log AC50 (M) and -4.7486 Log AC50 (M) and -5.0986 Log AC50 (M) | – | -5.0486 Log AC50 (M) | 6.33 | – | – | 9.65e-06 | –
17 | CCCCN1CCCc2cc(CN(CCCN3CCOCC3)C(=O)Nc3ccc(OCC)cc3)ccc21 [NCGC00140593-02] | -4.9986 Log AC50 (M) and -4.7986 Log AC50 (M) | 15.9 | -4.8486 Log AC50 (M) and -4.7986 Log AC50 (M) | 17.8 | 1.36e-05 | – | – | –
18 | NC(=O)c1ccc(O)c2ncccc12 [NCGC00184888-01] | – | 14.2 | – | 20 | 1.59e-05 | – | – | –

Row | SMILES | Individual replicates / Log AC50 (M) [1] | AC50 [1] [µM] | Individual replicates / Log AC50 (M) ([2]; 72 h, n = 1) | AC50 [2, 4] [µM] | AC50 [3, 5] [M] | Individual replicates / Log AC50 (M) ([2]; 72 h; n = 1) | AC50 ([3]; read-out: Calculated / Average Log AC50 (M) (converted)) | Calculated / Average Log AC50 (M) ([3]; mean of replicates, inhibitor, Calculated / Average Log AC50 (M))
19 | O=C(Cc1ccc(O)cc1)N1CCC2(C1)CN(c1ccccc1)C2 [NCGC00510421-01] | -4.9486 Log AC50 (M) | 14.2 | -4.7986 Log AC50 (M) and -4.7486 Log AC50 (M) | 14.2 | 1.26e-05 | – | – | –
20 | O=C(O)c1ccc(O)c2ncc(NCC3CCCN(CCc4ccccc4)C3)cc12 (stereo not drawn) [NCGC00241759-01] | -5.0486 Log AC50 (M) | 7.1 | -4.8486 Log AC50 (M) | 8.94 | 1.04e-05 | – | – | –
21 | Oc1ccc(CNc2cc(C(F)(F)F)ccn2)c2cccnc12 [NCGC00241027-01] | -5.0986 Log AC50 (M) and -5.0486 Log AC50 (M) | 14.2 | -4.8486 Log AC50 (M) | 7.1 | 1e-05 | – | – | –
22 | CCC(C)C1=N[S+](=O)([O-])c2cc(NC(=O)C3CC3)ccc2N1c1ccccc1 (stereo not drawn) [NCGC00474156-01] | -5.9486 Log AC50 (M) and -5.5986 Log AC50 (M) (2×) | – | -5.1986 Log AC50 (M) and -5.1486 Log AC50 (M) | 8.94 | 1.93e-06 | – | – | –
23 | Oc1ccc(CCc2ccccc2F)c2cccnc12 [NCGC00184905-01] | -5.1986 Log AC50 (M) and -4.7486 Log AC50 (M) | – | – | 15.9 | 1.31e-05 | – | – | –
24 | O=C(NCCCN1CCCCC1)c1cccc(-c2cc(O)c3ncccc3c2)c1 [NCGC00244529-01] | -5.0486 Log AC50 (M) | 14.2 | -4.7986 Log AC50 (M) | 8.94 | 1.04e-05 | – | – | –
25 | O=C(c1cccc(-c2cc(O)c3ncccc3c2)c1)N1CCN(CCCN2CCOCC2)CC1 [NCGC00247764-01] | – | 17.8 | – | 17.8 | 2e-05 | – | – | –
26 | CC(C)(C)OC(=O)NC1CCN(c2cc(-c3ccc(Cl)cc3)[nH]n2)C1 (stereo not drawn) [NCGC00490648-01] | – | 11.3 | – | 10 | 1.59e-05 | – | – | –
27 | O=C(O)c1ccncc1Nc1nn(CCN2CCC(F)(F)CC2)c2ccc(F)cc12 [NCGC00384162-01] | – | 15.9 | – | 17.8 | 1.93e-05 | – | – | –
28 | CN(C)CCCN1CCN(C(=O)c2cccc(-c3cc(O)c4ncccc4c3)c2)CC1 [NCGC00247746-01] | -4.7486 Log AC50 (M) | 11.3 | – | 15.9 | 1.53e-05 | – | – | –
29 | CC1CN(Cc2ccccc2)CCN1c1cnc2c(O)ccc(C(=O)O)c2c1 (stereo not drawn) [NCGC00249384-01] | – | 14.2 | – | 17.8 | 1.59e-05 | – | – | –
30 | Cc1nn2c(c1-c1ccccc1Oc1ccccc1)N(Cc1ccccc1)CCC2 [NCGC00499717-01] | -4.9986 Log AC50 (M) and -4.7486 Log AC50 (M) | 15.9 | -4.7986 Log AC50 (M) | 15.9 | 1.42e-05 | – | – | –
31 | O=C(O)CCNc1cc(N2CCc3ccccc3CC2)nc(-c2cccnc2)n1 [NCGC00351549-02] | -4.9986 Log AC50 (M) and -4.8486 Log AC50 (M) | 14.2 | -4.8486 Log AC50 (M) (2×) and -4.7986 Log AC50 (M) | – | – | – | – | -4.8986
32 | O=C(Nc1ccc(O)c2ncccc12)c1ccccc1F [NCGC00184884-01] | -5.2486 Log AC50 (M) and -4.9486 Log AC50 (M) | 6.33 | -4.8486 Log AC50 (M) and -5.0986 Log AC50 (M) | – | 7.38e-06 | – | – | –
33 | Oc1ccc(CNc2nccc3ccccc23)c2cccnc12 [NCGC00241025-01] | -5.2486 Log AC50 (M) and -4.8986 Log AC50 (M) and -5.1986 Log AC50 (M) | – | -5.2486 Log AC50 (M) and -4.7486 Log AC50 (M) | – | 7.67e-06 | – | – | –
34 | CN1CCN(C(=O)c2ccc(-c3cc(O)c4ncccc4c3)cc2)CC1 [NCGC00244524-01] | -5.0486 Log AC50 (M) and -5.0986 Log AC50 (M) | 15.9 | -5.0486 Log AC50 (M) | 15.9 | 1.04e-05 | – | – | –
35 | CC(C)OC(=O)c1ccnc2cc(C(OCCN3CCCCC3)c3cccc(NC(=O)/C=C/CN(C)C)c3)sc12 (stereo not drawn) [NCGC00493268-01] | -5.5986 Log AC50 (M) and -5.5486 Log AC50 (M) | 5.03 | -5.4486 Log AC50 (M) and -5.1486 Log AC50 (M) | – | 3.3e-06 | – | – | –
